Data taken from patent US20240293551A1, “USE OF ST-TYPE LIPID COMPOUNDS IN PREPARATION OF NUCLEIC ACID DELIVERY REAGENT AND RELATED PRODUCT” (INSTITUTE OF BASIC MEDICAL SCIENCES CHINESE ACADEMY OF …, priority 2021, published 2024).

Test system: PGY-sRNA-26
Assay: In vivo delivery study of lipid-nucleic acid mixture (oral gavage, RT-qPCR of PGY-sRNA-26 in tissues)
Design: species or system mouse
Settings: C57BL/6 mice, gavage, 100 μg lipid: 10 nmol PGY-sRNA-26, 12 hours; for delivery efficacy over each tissue and blood tested (broad-spectrum delivery): all tissues and blood tested; for oral delivery of single-stranded sRNA nucleic acids into mouse intestinal tissue: intestine
Method in brief: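 C57BL/6 male mice (~6 weeks, 20-24 g), fasted 12 h, were gavaged with 10 nmol 3′-methylated PGY-sRNA-26 mixed with 100 μg lipid (heated 90° C. 15 min), versus saline or free sRNA (n=4 each). After 12 h, blood and tissues were Trizol-extracted; sRNA quantified by stem-loop RT-qPCR relative to U6.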

SMILES	delivery efficacy over each tissue and blood tested (broad-spectrum delivery)	oral delivery of single-stranded sRNA nucleic acids into mouse blood	oral delivery of single-stranded sRNA nucleic acids into mouse brain tissue	oral delivery of single-stranded sRNA nucleic acids into mouse femur	oral delivery of single-stranded sRNA nucleic acids into mouse heart tissue	oral delivery of single-stranded sRNA nucleic acids into mouse intestinal tissue	oral delivery of single-stranded sRNA nucleic acids into mouse kidney tissue	oral delivery of single-stranded sRNA nucleic acids into mouse liver tissue	oral delivery of single-stranded sRNA nucleic acids into mouse lung tissue	oral delivery of single-stranded sRNA nucleic acids into mouse spleen tissue	oral delivery of single-stranded sRNA nucleic acids into mouse stomach tissue
C[C@H](/C=C/[C@H](C)C(C)(C)O)[C@H]1CC[C@H]2/C(=C/C=C3C[C@@H](O)C[C@H](O)C3)CCC[C@]12C [Lipid 545]	exhibited the best delivery efficacy	can effectively orally deliver	can effectively orally deliver	can effectively orally deliver	can effectively orally deliver	can effectively orally deliver	can effectively orally deliver	can effectively orally deliver	can effectively orally deliver	can effectively orally deliver	can effectively orally deliver
C[C@@H]1O[C@@H](O[C@H]2C[C@@H](O)[C@]3(CO)[C@H]4[C@H](O)C[C@]5(C)[C@@H](C6=CC(=O)OC6)CC[C@]5(O)[C@@H]4CC[C@]3(O)C2)[C@H](O)[C@H](O)[C@H]1O [Lipid 550]	exhibited the best delivery efficacy	can effectively orally deliver	can effectively orally deliver	can effectively orally deliver	can effectively orally deliver	can effectively orally deliver	can effectively orally deliver	can effectively orally deliver	can effectively orally deliver	can effectively orally deliver	can effectively orally deliver
CC(=O)OCC(=O)[C@@]1(O)CC[C@H]2[C@@H]3CCC4=CC(=O)CC[C@]4(C)[C@H]3[C@@H](O)C[C@@]21C [Lipid 582]	exhibited the best delivery efficacy	can effectively orally deliver	can effectively orally deliver	can effectively orally deliver	can effectively orally deliver	can effectively orally deliver	can effectively orally deliver	can effectively orally deliver	can effectively orally deliver	can effectively orally deliver	can effectively orally deliver
CC(C)[C@H](C)[C@@H](O)[C@H](O)[C@@H](C)[C@H]1CC[C@H]2[C@@H]3COC(=O)[C@H]4C[C@H](O)[C@H](O)C[C@]4(C)[C@H]3CC[C@]12C [Lipid 508]	exhibited the best delivery efficacy	can effectively orally deliver	can effectively orally deliver	–	can effectively orally deliver	can effectively orally deliver	can effectively orally deliver	can effectively orally deliver	can effectively orally deliver	can effectively orally deliver	can effectively orally deliver
C[C@]12CCC(=O)C=C1CC[C@H]1[C@@H]3CC[C@](O)(C(=O)CO)[C@@]3(C)C[C@H](O)[C@@]12F [Lipid 534]	exhibited the best delivery efficacy	can effectively orally deliver	can effectively orally deliver	can effectively orally deliver	can effectively orally deliver	can effectively orally deliver	can effectively orally deliver	can effectively orally deliver	can effectively orally deliver	can effectively orally deliver	can effectively orally deliver
C[C@]12CC[C@@H]3c4ccc(O)cc4CC[C@H]3[C@@H]1C[C@@H](O)[C@@H]2O [Lipid 633]	exhibited the best delivery efficacy	can effectively orally deliver	can effectively orally deliver	can effectively orally deliver	can effectively orally deliver	can effectively orally deliver	can effectively orally deliver	can effectively orally deliver	can effectively orally deliver	can effectively orally deliver	can effectively orally deliver
